Measured values: ChEMBL document CHEMBL3046287, “Azoxystrobin resistance of French Mycosphaerella graminicola strains assessed by four in vitro bioassays and by screening of G143A substitution” (Crop Prot, 2010)
Values after ≈ are worked out from the molar mass of the structure shown.

Legend:
Assay type in all cases: functional, organism-based
Zymoseptoria tritici [1] = test: Antifungal activity against azoxystrobin-sensitive Zymoseptoria tritici IPO323 carrying cytochrome-b G143 allele assessed as fungal colony perpendicular diameter changes after 10 days at 18 degC by spotting on PDA medium assay; settings: IPO323, 240 h
Zymoseptoria tritici [2] = test: Antifungal activity against azoxystrobin-resistant Zymoseptoria tritici T0485 carrying cytochrome-b A143 allele assessed as inhibition of spore germination after 2 days at 18 degC by spotting on PDA medium assay; settings: T0485, 48 h
Zymoseptoria tritici [3] = test: Antifungal activity against azoxystrobin-resistant Zymoseptoria tritici T0293 carrying cytochrome-b A143 allele assessed as inhibition of spore germination after 2 days at 18 degC by spotting on PDA medium assay; settings: T0293, 48 h
Zymoseptoria tritici [4] = test: Antifungal activity against azoxystrobin-resistant Zymoseptoria tritici T0414 carrying cytochrome-b A143 allele assessed as fungal growth inhibition after 6 days at 20 degC by microplate without alamar blue assay; settings: T0414, 144 h
Zymoseptoria tritici [5] = test: Antifungal activity against azoxystrobin-sensitive Zymoseptoria tritici IPO94269 carrying cytochrome-b G143 allele assessed as fungal growth inhibition after 6 days at 20 degC by microplate without alamar blue assay; settings: IPO94269, 144 h
Zymoseptoria tritici [6] = test: Antifungal activity against azoxystrobin-sensitive Zymoseptoria tritici T0471 carrying cytochrome-b G143 allele assessed as fungal colony perpendicular diameter changes after 10 days at 18 degC by spotting on PDA medium assay; settings: T0471, 240 h
Zymoseptoria tritici [7] = test: Antifungal activity against azoxystrobin-sensitive Zymoseptoria tritici T0209 carrying cytochrome-b G143 allele assessed as inhibition of spore germination after 2 days at 18 degC by spotting on PDA medium assay; settings: T0209, 48 h
Zymoseptoria tritici [8] = test: Antifungal activity against azoxystrobin-sensitive Zymoseptoria tritici T0471 carrying cytochrome-b G143 allele assessed as inhibition of spore germination after 2 days at 18 degC by spotting on PDA medium assay; settings: T0471, 48 h
Zymoseptoria tritici [9] = test: Antifungal activity against azoxystrobin-resistant Zymoseptoria tritici T0345 carrying cytochrome-b A143 allele assessed as fungal colony perpendicular diameter changes after 10 days at 18 degC by spotting on PDA medium assay; settings: T0345, 240 h
Zymoseptoria tritici [10] = test: Antifungal activity against azoxystrobin-sensitive Zymoseptoria tritici T0403 carrying cytochrome-b G143 allele assessed as inhibition of spore germination after 2 days at 18 degC by spotting on PDA medium assay; settings: T0403, 48 h
Zymoseptoria tritici [11] = test: Antifungal activity against azoxystrobin-resistant Zymoseptoria tritici T032 carrying cytochrome-b A143 allele assessed as inhibition of spore germination after 2 days at 18 degC by spotting on PDA medium assay; settings: T032, 48 h
Zymoseptoria tritici [12] = test: Antifungal activity against azoxystrobin-sensitive Zymoseptoria tritici T0210 carrying cytochrome-b G143 allele assessed as inhibition of spore germination after 2 days at 18 degC by spotting on PDA medium assay; settings: T0210, 48 h
Zymoseptoria tritici [13] = test: Antifungal activity against azoxystrobin-resistant Zymoseptoria tritici T0262 carrying cytochrome-b A143 allele assessed as inhibition of spore germination after 2 days at 18 degC by spotting on PDA medium assay; settings: T0262, 48 h
Zymoseptoria tritici [14] = test: Antifungal activity against azoxystrobin-sensitive Zymoseptoria tritici IPO94269 carrying cytochrome-b G143 allele assessed as fungal colony perpendicular diameter changes after 10 days at 18 degC by spotting on PDA medium assay; settings: IPO94269, 240 h
Zymoseptoria tritici [15] = test: Antifungal activity against azoxystrobin-resistant Zymoseptoria tritici T0345 carrying cytochrome-b A143 allele assessed as fungal growth inhibition after 6 days at 20 degC by microplate without alamar blue assay; settings: T0345, 144 h
Zymoseptoria tritici [16] = test: Antifungal activity against azoxystrobin-sensitive Zymoseptoria tritici T0468 carrying cytochrome-b G143 allele assessed as fungal growth inhibition after 6 days at 20 degC by microplate without alamar blue assay; settings: T0468, 144 h
Zymoseptoria tritici [17] = test: Antifungal activity against azoxystrobin-resistant Zymoseptoria tritici T0242 carrying cytochrome-b A143 allele assessed as fungal growth inhibition after 6 days at 20 degC by microplate without alamar blue assay; settings: T0242, 144 h
Zymoseptoria tritici [18] = test: Antifungal activity against azoxystrobin-resistant Zymoseptoria tritici T0290 carrying cytochrome-b A143 allele assessed as fungal colony perpendicular diameter changes after 10 days at 18 degC by spotting on PDA medium assay; settings: T0290, 240 h
Zymoseptoria tritici [19] = test: Antifungal activity against azoxystrobin-resistant Zymoseptoria tritici T0293 carrying cytochrome-b A143 allele assessed as fungal colony perpendicular diameter changes after 10 days at 18 degC by spotting on PDA medium assay; settings: T0293, 240 h
Zymoseptoria tritici [20] = test: Antifungal activity against azoxystrobin-sensitive Zymoseptoria tritici T0464 carrying cytochrome-b G143 allele assessed as inhibition of spore germination after 2 days at 18 degC by spotting on PDA medium assay; settings: T0464, 48 h
Zymoseptoria tritici [21] = test: Antifungal activity against azoxystrobin-sensitive Zymoseptoria tritici T0209 carrying cytochrome-b G143 allele assessed as fungal growth inhibition after 6 days at 20 degC by microplate without alamar blue assay; settings: T0209, 144 h
Zymoseptoria tritici [22] = test: Antifungal activity against azoxystrobin-resistant Zymoseptoria tritici T0251 carrying cytochrome-b A143 allele assessed as fungal growth inhibition after 6 days at 20 degC by microplate without alamar blue assay; settings: T0251, 144 h
Zymoseptoria tritici [23] = test: Antifungal activity against azoxystrobin-sensitive Zymoseptoria tritici T0211 carrying cytochrome-b G143 allele assessed as fungal colony perpendicular diameter changes after 10 days at 18 degC by spotting on PDA medium assay; settings: T0211, 240 h
Zymoseptoria tritici [24] = test: Antifungal activity against azoxystrobin-resistant Zymoseptoria tritici T0451 carrying cytochrome-b A143 allele assessed as inhibition of spore germination after 2 days at 18 degC by spotting on PDA medium assay; settings: T0451, 48 h
Zymoseptoria tritici [25] = test: Antifungal activity against azoxystrobin-sensitive Zymoseptoria tritici T0468 carrying cytochrome-b G143 allele assessed as fungal colony perpendicular diameter changes after 10 days at 18 degC by spotting on PDA medium assay; settings: T0468, 240 h
Zymoseptoria tritici [26] = test: Antifungal activity against azoxystrobin-sensitive Zymoseptoria tritici T0148 carrying cytochrome-b G143 allele assessed as inhibition of spore germination after 2 days at 18 degC by spotting on PDA medium assay; settings: T0148, 48 h
Zymoseptoria tritici [27] = test: Antifungal activity against azoxystrobin-sensitive Zymoseptoria tritici T0213 carrying cytochrome-b G143 allele assessed as fungal growth inhibition after 6 days at 20 degC by microplate without alamar blue assay; settings: T0213, 144 h
Zymoseptoria tritici [28] = test: Antifungal activity against azoxystrobin-sensitive Zymoseptoria tritici T0466 carrying cytochrome-b G143 allele assessed as fungal colony perpendicular diameter changes after 10 days at 18 degC by spotting on PDA medium assay; settings: T0466, 240 h
Zymoseptoria tritici [29] = test: Antifungal activity against azoxystrobin-sensitive Zymoseptoria tritici T021 carrying cytochrome-b G143 allele assessed as inhibition of spore germination after 2 days at 18 degC by spotting on PDA medium assay; settings: T021, 48 h
Zymoseptoria tritici [30] = test: Antifungal activity against azoxystrobin-resistant Zymoseptoria tritici T0485 carrying cytochrome-b A143 allele assessed as fungal colony perpendicular diameter changes after 10 days at 18 degC by spotting on PDA medium assay; settings: T0485, 240 h

CO/C=C(/C(=O)OC)c1ccccc1Oc1cc(Oc2ccccc2C#N)ncn1 [AZOXYSTROBIN]
IC50 (Zymoseptoria tritici [1]): 0.03 µg/mL (≈ 0.0744 µM)
IC50 (Zymoseptoria tritici [2]): 14.6 µg/mL (≈ 36.3 µM)
IC50 (Zymoseptoria tritici [3]): 11.4 µg/mL (≈ 28.2 µM)
IC50 (Zymoseptoria tritici [4]): > 100 µg/mL
IC50 (Zymoseptoria tritici [5]): 0.03 µg/mL (≈ 0.0744 µM)
IC50 (Zymoseptoria tritici [6]): 0.1 µg/mL (≈ 0.248 µM)
IC50 (Zymoseptoria tritici [7]): 0.09 µg/mL (≈ 0.223 µM)
IC50 (Zymoseptoria tritici [8]): 0.08 µg/mL (≈ 0.198 µM)
IC50 (Zymoseptoria tritici [9]): > 100 µg/mL
IC50 (Zymoseptoria tritici [10]): < 0.01 µg/mL
IC50 (Zymoseptoria tritici [11]): 11.6 µg/mL (≈ 28.7 µM)
IC50 (Zymoseptoria tritici [12]): 0.01 µg/mL (≈ 0.0248 µM)
IC50 (Zymoseptoria tritici [13]): > 100 µg/mL
IC50 (Zymoseptoria tritici [14]): 0.1 µg/mL (≈ 0.248 µM)
IC50 (Zymoseptoria tritici [15]): > 100 µg/mL
IC50 (Zymoseptoria tritici [16]): 0.02 µg/mL (≈ 0.0496 µM)
IC50 (Zymoseptoria tritici [17]): > 100 µg/mL
IC50 (Zymoseptoria tritici [18]): 11.2 µg/mL (≈ 27.7 µM)
IC50 (Zymoseptoria tritici [19]): 10.2 µg/mL (≈ 25.2 µM)
IC50 (Zymoseptoria tritici [20]): 0.22 µg/mL (≈ 0.545 µM)
IC50 (Zymoseptoria tritici [21]): 0.01 µg/mL (≈ 0.0248 µM)
IC50 (Zymoseptoria tritici [22]): > 100 µg/mL
IC50 (Zymoseptoria tritici [23]): 0.08 µg/mL (≈ 0.198 µM)
IC50 (Zymoseptoria tritici [24]): 29.6 µg/mL (≈ 73.3 µM)
IC50 (Zymoseptoria tritici [25]): 0.23 µg/mL (≈ 0.57 µM)
IC50 (Zymoseptoria tritici [26]): 0.08 µg/mL (≈ 0.198 µM)
IC50 (Zymoseptoria tritici [27]): 0.03 µg/mL (≈ 0.0744 µM)
IC50 (Zymoseptoria tritici [28]): 0.11 µg/mL (≈ 0.273 µM)
IC50 (Zymoseptoria tritici [29]): 0.21 µg/mL (≈ 0.521 µM)
IC50 (Zymoseptoria tritici [30]): 10.6 µg/mL (≈ 26.2 µM)
